Source: BindingDB's records for doi:10.3109/14756366.2012.715287 (Atatürk University, 2013)

target: Serum paraoxonase/arylesterase 1 (Homo sapiens, UniProt P27169); assay: Enzyme Activity Assay
Protocol: The enzyme assay was based on the estimation of p-nitrophenol at 412 nm. Paraoxonase activity was determined spectrophotometrically using the same procedure in our previous studies [Ekinci et al., Eur. J. Pharmacol., 617:84-89]. One enzyme unit was defined as the amount of enzyme that catalyzes the hydrolysis of 1 μmol of substrate at 25°C.

Sequence of Serum paraoxonase/arylesterase 1 (P27169 whole entry): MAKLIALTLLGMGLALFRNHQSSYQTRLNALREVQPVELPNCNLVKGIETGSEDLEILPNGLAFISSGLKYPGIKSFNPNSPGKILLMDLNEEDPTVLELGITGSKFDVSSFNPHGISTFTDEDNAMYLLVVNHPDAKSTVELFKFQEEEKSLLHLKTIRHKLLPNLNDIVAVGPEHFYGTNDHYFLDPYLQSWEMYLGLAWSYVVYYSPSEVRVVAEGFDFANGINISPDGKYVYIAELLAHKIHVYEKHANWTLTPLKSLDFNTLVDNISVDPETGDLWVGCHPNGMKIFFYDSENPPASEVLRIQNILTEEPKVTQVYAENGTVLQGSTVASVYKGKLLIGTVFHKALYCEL

**Q.** `O=C(c1ccc(O)c(O)c1)c1c(O)c(O)cc(Br)c1Br` [(2,3-Dibromo-5,6-dihydroxyphenyl)(3,4-dihydroxyphenyl)methanone (10)] was tested. Which IC50 did it give?
**A.** Its IC50 is 832 µM.

**Q.** For `COc1ccc(C(=O)c2c(Br)c(Br)cc(OC)c2OC)cc1OC` [(2,3-dibromo-5,6-dimethoxyphenyl)(3,4-dimethoxyphenyl)methanone (7)], which IC50 is on record?
**A.** The IC50 was 174 µM.

**Q.** `COc1ccc(C(=O)c2cccc(OC)c2OC)cc1OC` [(2,3-dimethoxyphenyl)(3,4-dimethoxyphenyl)methanone (6)] was tested. Which IC50 did it give?
**A.** The IC50 was 1210 µM.

**Q.** With `O=C(c1cc(O)c(O)cc1Br)c1c(O)c(O)cc(Br)c1Br` [(2-Bromo-4,5-dihydroxyphenyl)(2,3-dibromo-5,6-dihydroxyphenyl)methanone (11)] as the compound, how does the IC50 read?
**A.** The IC50 was 1110 µM.

**Q.** With `COc1cc(Br)c(C(=O)c2c(Br)c(Br)cc(OC)c2OC)cc1OC` [(2-Bromo-4,5-dimethoxyphenyl)(2,3-dibromo-5,6-dimethoxyphenyl)methanone (8)] as the compound, how does the IC50 read?
**A.** Its IC50 is 123 µM.

**Q.** `O=C(c1cc(O)c(O)c(Br)c1)c1c(O)c(O)cc(Br)c1Br` [(3-Bromo-4,5-dihydroxyphenyl)(2,3-dibromo-5,6-dihydroxyphenyl)methanone (12)] was tested. Which IC50 did it give?
**A.** Its IC50 is 701 µM.

**Q.** `COc1cc(C(=O)c2c(Br)c(Br)cc(OC)c2OC)cc(Br)c1OC` [(3-Bromo-4,5-dimethoxyphenyl)(2,3-dibromo-5,6-dimethoxyphenyl)methanone (9)] was tested. Which IC50 did it give?
**A.** Its IC50 is 125 µM.
